Measurements as given in US20060083738A1, “Treatment of cancer by the use of anti fas antibody” (FUSION ANTIBODIES LIMITED, priority 2002, published 2006).

Assays:
Format in all cases: cell-based
[1] = system: Fas / FasL interaction; experiment: Immunoprecipitation of Fas receptor and FasL; details: 5FU treatment, FIG. 1B
[2] = system: procaspase 8, BID, c-FLIP, FasL; experiment: Expression and activation of apoptosis regulating proteins in drug-treated cells
Method: FIG. 2 illustrates expression of apoptosis regulating proteins in MCF-7 cells 72 hours after treatment with 10 μM 5-FU or 100 nM TDX.
(§1) Moreover, procaspase 8 and BID cleavage are not observed in cells treated with either 5PU or anti-Fas monoclonal antibody alone. However, both are activated following co-treatment with 5FU and anti-Fas monoclonal antibody (indicated by loss of full-length procaspase 8 and BID).

[3] = system: Fas; experiment: Fas expression in response to 5FU treatment, MCF-7; details: MCF-7 breast cancer cell line
Excerpt: (§2) FIG. 1 illustrates FAS/CD95 expression in response to 5-FU and tomudex (TDX).
as §1

[4] = system: Fas; experiment: Fas expression in response to 5FU treatment, HCT116; details: HCT116 colorectal cancer cell line
Excerpt: as §2, §1

With `O=c1[nH]cc(F)c(=O)[nH]1` [5FU, 5-Fluorouracil] the “interaction between receptor (Fas) and ligand (FasL)” value [1] was “up-regulated”, the FasL expression ([2]; 5FU treatment) was “unaffected” and the “activation of procaspase 8 or BID” value ([2]; 5FU-treated MCF-7 and HCT116 cells, FIG. 1A) was “does not result in activation of procaspase 8 or BID”. The c-FLIP expression ([2]; 5FU-treated cells or co-treated cells) was “up-regulated”, the “procaspase 8 and BID cleavage” value ([2]; single agent or co-treatment, loss of full-length procaspase 8 and BID) was “not observed” and the “up-regulation of Fas expression” value [3] was greater than 10 fold. For the same molecule, the “up-regulation of Fas expression” value [4] was greater than 10 fold.
